# From patent US6706740B2, “Fungicidal heterocyclic aromatic amides and their compositions, methods of use and preparation” (Dow AgroSciences LLC, priority 1999, dated 2004)
# Tested on: Magnaporthe grisea (Pyricularia oryzae—PYRIOR)
# Assay: microbe, parasite or virus in culture
# Format: cell-based
# Conditions: Pyricularia oryzae, read-out: PYRIOR in vitro Growth Inhibition
row,SMILES,inhibition at 25 ppm [%]
1,COc1ccnc(C(=O)N[C@H]2COC(=O)[C@H](Cc3ccccc3)[C@@H](OC(=O)C(C)C)[C@H](C)OC2=O)c1OC(=O)CC(C)(C)C [Compound 610],< 80
2,CC1(C)CC(NC(=O)c2nccnc2O)CC(C)(C)C1 [Compound 533],< 80
3,COc1ccc(CNC(=O)c2ncccc2O)cc1 [Compound 226],< 80

# Tested on: Phytophthora infestans (PHYTIN)
# Assay: microbe, parasite or virus in culture
# Format: cell-based
# Conditions: Phytophthora infestans, read-out: PHYTIN in vitro Growth Inhibition
row,SMILES,inhibition at 25 ppm [%]
1,COc1ccnc(C(=O)N[C@H]2COC(=O)[C@H](Cc3ccccc3)[C@@H](OC(=O)C(C)C)[C@H](C)OC2=O)c1OC(=O)CC(C)(C)C [Compound 610],< 80
2,CC1(C)CC(NC(=O)c2nccnc2O)CC(C)(C)C1 [Compound 533],< 80
3,COc1ccc(CNC(=O)c2ncccc2O)cc1 [Compound 226],> 80

# Tested on: Stagonospora nodorum (Leptosphaeria nodorum—LEPTNO)
# Assay: In vitro fungal growth inhibition, Stagonospora nodorum (LEPTNO)
# Format: cell-based
# Conditions: Leptosphaeria; 25 ppm in growth medium; read-out: LEPTNO in vitro Growth Inhibition
row,SMILES,inhibition at 25 ppm [%]
1,COc1ccnc(C(=O)N[C@H]2COC(=O)[C@H](Cc3ccccc3)[C@@H](OC(=O)C(C)C)[C@H](C)OC2=O)c1OC(=O)CC(C)(C)C [Compound 610],> 80
2,COc1ccc(CNC(=O)c2ncccc2O)cc1 [Compound 226],< 80

# Same assay, conditions: Leptosphaeria; 25 ppm in the growth medium; read-out: LEPTNO in vitro Growth Inhibition
row,SMILES,inhibition at 25 ppm [%]
1,CC1(C)CC(NC(=O)c2nccnc2O)CC(C)(C)C1 [Compound 533],< 80

# Tested on: Septoria tritici—SEPTTR
# Assay: Leaf Blotch of Wheat, in vivo whole plant, 24 Hour Protectant
# Conditions: Zymoseptoria tritici, 24 h, 100 ppm spray, 24 hour protectant, wheat; control of fungal infection vs untreated plants; read-out: SEPTTR in vivo 1 Day Protectant
row,SMILES,pest or weed control at 100 ppm [%]
1,COc1ccc(CNC(=O)c2ncccc2O)cc1 [Compound 226],< 25

# Same assay, conditions: Zymoseptoria tritici, 24 h, 100 ppm spray, wheat, 24 hour protectant, % control of fungal infection vs untreated plants; read-out: SEPTTR in vivo 1 Day Protectant
row,SMILES,pest or weed control at 100 ppm [%]
1,COc1ccnc(C(=O)N[C@H]2COC(=O)[C@H](Cc3ccccc3)[C@@H](OC(=O)C(C)C)[C@H](C)OC2=O)c1OC(=O)CC(C)(C)C [Compound 610],< 25

# Same assay, conditions: Zymoseptoria tritici, 24 h, wheat plants sprayed at 100 ppm, inoculated after 24 hours; control of fungal infection vs untreated plants; read-out: SEPTTR in vivo 1 Day Protectant
row,SMILES,pest or weed control at 100 ppm [%]
1,CC1(C)CC(NC(=O)c2nccnc2O)CC(C)(C)C1 [Compound 533],25 to 74

# Tested on: Leptosphaeria nodorum—LEPTNO
# Assay: Glume Blotch of Wheat, in vivo whole plant, 24 Hour Protectant
# Conditions: Leptosphaeria; 100 ppm spray, 24 hour protectant, wheat; control of fungal infection vs untreated plants; read-out: LEPTNO in vivo 1 Day Protectant
row,SMILES,pest or weed control at 100 ppm [%]
1,COc1ccc(CNC(=O)c2ncccc2O)cc1 [Compound 226],< 25

# Same assay, conditions: Leptosphaeria; 100 ppm spray, wheat, 24 hour protectant, % control of fungal infection vs untreated plants; read-out: LEPTNO in vivo 1 Day Protectant
row,SMILES,pest or weed control at 100 ppm [%]
1,COc1ccnc(C(=O)N[C@H]2COC(=O)[C@H](Cc3ccccc3)[C@@H](OC(=O)C(C)C)[C@H](C)OC2=O)c1OC(=O)CC(C)(C)C [Compound 610],< 25

# Same assay, conditions: Leptosphaeria; wheat plants sprayed at 100 ppm, inoculated after 24 hours; control of fungal infection vs untreated plants; read-out: LEPTNO in vivo 1 Day Protectant
row,SMILES,pest or weed control at 100 ppm [%]
1,CC1(C)CC(NC(=O)c2nccnc2O)CC(C)(C)C1 [Compound 533],25 to 74

# Tested on: Rhizoctonia solani (RHIZSO)
# Assay: microbe, parasite or virus in culture
# Format: cell-based
# Conditions: Rhizoctonia solani, read-out: RHIZSO in vitro Growth Inhibition
row,SMILES,inhibition at 25 ppm [%]
1,COc1ccnc(C(=O)N[C@H]2COC(=O)[C@H](Cc3ccccc3)[C@@H](OC(=O)C(C)C)[C@H](C)OC2=O)c1OC(=O)CC(C)(C)C [Compound 610],< 80
2,CC1(C)CC(NC(=O)c2nccnc2O)CC(C)(C)C1 [Compound 533],< 80
3,COc1ccc(CNC(=O)c2ncccc2O)cc1 [Compound 226],< 80

# Tested on: not given
# Assay: not given
# Conditions: not given
row,SMILES,melting point
1,COc1ccnc(C(=O)N[C@H]2COC(=O)[C@H](Cc3ccccc3)[C@@H](OC(=O)C(C)C)[C@H](C)OC2=O)c1OC(=O)CC(C)(C)C [Compound 610],151 to 152 °C
2,CC1(C)CC(NC(=O)c2nccnc2O)CC(C)(C)C1 [Compound 533],248 to 250 °C (dec.)
3,COc1ccc(CNC(=O)c2ncccc2O)cc1 [Compound 226],96 to 97 °C

# Tested on: Ustilago maydis (USTIMA)
# Assay: microbe, parasite or virus in culture
# Format: cell-based
# Conditions: Mycosarcoma maydis, read-out: USTIMA in vitro Growth Inhibition
row,SMILES,inhibition at 25 ppm [%]
1,COc1ccnc(C(=O)N[C@H]2COC(=O)[C@H](Cc3ccccc3)[C@@H](OC(=O)C(C)C)[C@H](C)OC2=O)c1OC(=O)CC(C)(C)C [Compound 610],< 80
2,CC1(C)CC(NC(=O)c2nccnc2O)CC(C)(C)C1 [Compound 533],< 80
3,COc1ccc(CNC(=O)c2ncccc2O)cc1 [Compound 226],< 80

# Tested on: Puccinia recondita—PUCCRT
# Assay: Brown Rust of Wheat, in vivo whole plant, 24 Hour Protectant
# Conditions: Puccinia; 100 ppm spray, 24 hour protectant, wheat; control of fungal infection vs untreated plants; read-out: PUCCRT in vivo 1 Day Protectant
row,SMILES,pest or weed control at 100 ppm [%]
1,COc1ccc(CNC(=O)c2ncccc2O)cc1 [Compound 226],< 25

# Same assay, conditions: Puccinia; 100 ppm spray, wheat, 24 hour protectant, % control of fungal infection vs untreated plants; read-out: PUCCRT in vivo 1 Day Protectant
row,SMILES,pest or weed control at 100 ppm [%]
1,COc1ccnc(C(=O)N[C@H]2COC(=O)[C@H](Cc3ccccc3)[C@@H](OC(=O)C(C)C)[C@H](C)OC2=O)c1OC(=O)CC(C)(C)C [Compound 610],25 to 74

# Same assay, conditions: Puccinia; wheat plants sprayed at 100 ppm, inoculated after 24 hours; control of fungal infection vs untreated plants; read-out: PUCCRT in vivo 1 Day Protectant
row,SMILES,pest or weed control at 100 ppm [%]
1,CC1(C)CC(NC(=O)c2nccnc2O)CC(C)(C)C1 [Compound 533],25 to 74

# Tested on: Phytophthora infestans—PHYTIN
# Assay: whole plant or invertebrate
# Format: in vivo
# Conditions: Phytophthora, in Solanum lycopersicum, 24 h, read-out: PHYTIN in vivo 1 Day Protectant
row,SMILES,pest or weed control at 100 ppm [%]
1,COc1ccnc(C(=O)N[C@H]2COC(=O)[C@H](Cc3ccccc3)[C@@H](OC(=O)C(C)C)[C@H](C)OC2=O)c1OC(=O)CC(C)(C)C [Compound 610],< 25
2,CC1(C)CC(NC(=O)c2nccnc2O)CC(C)(C)C1 [Compound 533],25 to 74
3,COc1ccc(CNC(=O)c2ncccc2O)cc1 [Compound 226],< 25

# Tested on: Erysiphe graminis—ERYSGT
# Assay: Powdery Mildew of Wheat, in vivo whole plant, 24 Hour Protectant
# Conditions: Erysiphe; 100 ppm spray, 24 hour protectant, wheat; control of fungal infection vs untreated plants; read-out: ERYSGT in vivo 1 Day Protectant
row,SMILES,pest or weed control at 100 ppm [%]
1,COc1ccc(CNC(=O)c2ncccc2O)cc1 [Compound 226],25 to 74

# Same assay, conditions: Erysiphe; 100 ppm spray, wheat, 24 hour protectant, % control of fungal infection vs untreated plants; read-out: ERYSGT in vivo 1 Day Protectant
row,SMILES,pest or weed control at 100 ppm [%]
1,COc1ccnc(C(=O)N[C@H]2COC(=O)[C@H](Cc3ccccc3)[C@@H](OC(=O)C(C)C)[C@H](C)OC2=O)c1OC(=O)CC(C)(C)C [Compound 610],< 25

# Same assay, conditions: Erysiphe; wheat plants sprayed at 100 ppm, inoculated after 24 hours; control of fungal infection vs untreated plants; read-out: ERYSGT in vivo 1 Day Protectant
row,SMILES,pest or weed control at 100 ppm [%]
1,CC1(C)CC(NC(=O)c2nccnc2O)CC(C)(C)C1 [Compound 533],< 25

# Tested on: Mycosphaerella graminicola (Septoria tritici—SEPTTR)
# Assay: In vitro fungal growth inhibition, Mycosphaerella graminicola (SEPTTR)
# Format: cell-based
# Conditions: Zymoseptoria tritici; 25 ppm in growth medium; read-out: SEPTTR in vitro Growth Inhibition
row,SMILES,inhibition at 25 ppm [%]
1,COc1ccnc(C(=O)N[C@H]2COC(=O)[C@H](Cc3ccccc3)[C@@H](OC(=O)C(C)C)[C@H](C)OC2=O)c1OC(=O)CC(C)(C)C [Compound 610],< 80
2,COc1ccc(CNC(=O)c2ncccc2O)cc1 [Compound 226],< 80

# Same assay, conditions: Zymoseptoria tritici; 25 ppm in the growth medium; read-out: SEPTTR in vitro Growth Inhibition
row,SMILES,inhibition at 25 ppm [%]
1,CC1(C)CC(NC(=O)c2nccnc2O)CC(C)(C)C1 [Compound 533],< 80
